# Values quoted from earlier work as cited in PubChem BioAssay AID1259409 (Chemical Carcinogenesis Research Information System (CCRIS), 2018).
# Tested on: rodent chemically induced tumor inhibition, incidence and multiplicity
# Experiment: CCRIS tumor inhibitor studies
# Conditions: Route [Inhibitor]: ORAL
compound,measurement,setting,value
S=C=NCCc1ccccc1,"tumour outcome (control, treated, inhibition, significance)","Carcinogen: N-NITROSOBIS(2-OXOPROPYL)AMINE [60599-38-4], Dose [Inhibitor]: 3 UMOL IN DIET FOR 49 WK BEGINNING 2 WK POST LAST CARCINOGEN DOSE (STUDY DURATION: 52 WK), Species: HAMSTER, Strain/Sex: SYRIAN/FEMALE, Target Tissue: Type of Lesion: LUNG: ADENOCARCINOMA, Dose [Carcinogen]: 20 MG/KG BW 1X/WK FOR 2 WK (STUDY DURATION: 52 WK), Promoter: NONE","14/25 (56.0%), 12/28 (42.9%), 23%, not significant"
same,"tumour outcome (control, treated, inhibition, significance)","Carcinogen: N-NITROSOBIS(2-OXOPROPYL)AMINE [60599-38-4], Dose [Inhibitor]: 3 UMOL IN DIET FOR 49 WK BEGINNING 2 WK POST LAST CARCINOGEN DOSE (STUDY DURATION: 52 WK), Species: HAMSTER, Strain/Sex: SYRIAN/FEMALE, Target Tissue: Type of Lesion: LUNG: ADENOMA, Dose [Carcinogen]: 20 MG/KG BW 1X/WK FOR 2 WK (STUDY DURATION: 52 WK), Promoter: NONE","20/25 (88.0%), 26/28 (92.9%), -6%, not significant"
same,"tumour outcome (control, treated, inhibition, significance)","Carcinogen: N-NITROSOBIS(2-OXOPROPYL)AMINE [60599-38-4], Dose [Inhibitor]: 3 UMOL IN DIET FOR 49 WK BEGINNING 2 WK POST LAST CARCINOGEN DOSE (STUDY DURATION: 52 WK), Species: HAMSTER, Strain/Sex: SYRIAN/FEMALE, Target Tissue: Type of Lesion: PANCREAS: ADENOCARCINOMA, Dose [Carcinogen]: 20 MG/KG BW 1X/WK FOR 2 WK (STUDY DURATION: 52 WK), Promoter: NONE","20/25 (80.0%), 22/28 (78.6%), 2%, not significant"
same,"tumour outcome (control, treated, inhibition, significance)","Carcinogen: N-NITROSOBIS(2-OXOPROPYL)AMINE [60599-38-4], Dose [Inhibitor]: 6 UMOL IN DIET FOR 49 WK BEGINNING 2 WK POST LAST CARCINOGEN DOSE (STUDY DURATION: 52 WK), Species: HAMSTER, Strain/Sex: SYRIAN/FEMALE, Target Tissue: Type of Lesion: LIVER: HEPATOCELLULAR ADENOMA, Dose [Carcinogen]: 20 MG/KG BW 1X/WK FOR 2 WK (STUDY DURATION: 52 WK), Promoter: NONE","18/25 (72.0%), 16/28 (57.1%), 21%, not significant"
same,"tumour outcome (control, treated, inhibition, significance)","Carcinogen: N-NITROSOBIS(2-OXOPROPYL)AMINE [60599-38-4], Dose [Inhibitor]: 6 UMOL IN DIET FOR 49 WK BEGINNING 2 WK POST LAST CARCINOGEN DOSE (STUDY DURATION: 52 WK), Species: HAMSTER, Strain/Sex: SYRIAN/FEMALE, Target Tissue: Type of Lesion: LUNG: ADENOCARCINOMA, Dose [Carcinogen]: 20 MG/KG BW 1X/WK FOR 2 WK (STUDY DURATION: 52 WK), Promoter: NONE","14/25 (56.0%), 11/28 (39.3%), 30%, not significant"
same,"tumour outcome (control, treated, inhibition, significance)","Carcinogen: N-NITROSOBIS(2-OXOPROPYL)AMINE [60599-38-4], Dose [Inhibitor]: 6 UMOL IN DIET FOR 49 WK BEGINNING 2 WK POST LAST CARCINOGEN DOSE (STUDY DURATION: 52 WK), Species: HAMSTER, Strain/Sex: SYRIAN/FEMALE, Target Tissue: Type of Lesion: LUNG: ADENOMA, Dose [Carcinogen]: 20 MG/KG BW 1X/WK FOR 2 WK (STUDY DURATION: 52 WK), Promoter: NONE","20/25 (88.0%), 24/28 (85.7%), 3%, not significant"
same,"tumour outcome (control, treated, inhibition, significance)","Carcinogen: N-NITROSOBIS(2-OXOPROPYL)AMINE [60599-38-4], Dose [Inhibitor]: 6 UMOL IN DIET FOR 49 WK BEGINNING 2 WK POST LAST CARCINOGEN DOSE (STUDY DURATION: 52 WK), Species: HAMSTER, Strain/Sex: SYRIAN/FEMALE, Target Tissue: Type of Lesion: PANCREAS: ADENOCARCINOMA, Dose [Carcinogen]: 20 MG/KG BW 1X/WK FOR 2 WK (STUDY DURATION: 52 WK), Promoter: NONE","20/25 (80.0%), 25/28 (89.3%), -12%, not significant"
same,"tumour outcome (control, treated, inhibition, significance)","Carcinogen: N-NITROSOMETHYLBENZYLAMINE, 937-40-6, Dose [Inhibitor]: 0, 0.325 UMOL/G OF DIET FOR 25 WK BEGINNING 2 WK PRIOR TO CARCINOGEN TREATMENT (STUDY DURATION: 25 WK), Species: RAT, Strain/Sex: F344/MALE, Target Tissue: Type of Lesion: ESOPHAGUS: TUMORS, Dose [Carcinogen]: 0.5 MG/KG 1/WK FOR 15 WK, Promoter: NONE USED","100%, 100%, 0%, not significant"
same,"tumour outcome (control, treated, inhibition, significance)","Carcinogen: N-NITROSOMETHYLBENZYLAMINE, 937-40-6, Dose [Inhibitor]: 0, 0.4 UMOL/G IN DIET FOR 25 WK BEGINNING 2 WK PRIOR TO CARCINOGEN TREATMENT (STUDY DURATION: 25 WK), Species: RAT, Strain/Sex: F344/MALE, Target Tissue: Type of Lesion: ESOPHAGUS: TUMOR, Dose [Carcinogen]: 0.5 MG/KG BW IN 20% DMSO 1/WK FOR 15 WK, Promoter: NONE USED","100%, 57%, 43%, not significant"
same,"tumour outcome (control, treated, inhibition, significance)","Carcinogen: N-NITROSOMETHYLBENZYLAMINE, 937-40-6, Dose [Inhibitor]: 0, 0.75 UMOL/G OF DIET FOR 25 WK BEGINNING 2 WK PRIOR TO CARCINOGEN TREATMENT (STUDY DURATION: 25 WK), Species: RAT, Strain/Sex: F344/MALE, Target Tissue: Type of Lesion: ESOPHAGUS: TUMORS, Dose [Carcinogen]: 0.5 MG/KG 1/WK FOR 15 WK, Promoter: NONE USED","100%, 100%, 0%, not significant"
same,"tumour outcome (control, treated, inhibition, significance)","Carcinogen: N-NITROSOMETHYLBENZYLAMINE, 937-40-6, Dose [Inhibitor]: 0, 1 UMOL/G IN DIET FOR 25 WK BEGINNING 2 WK PRIOR TO CARCINOGEN TREATMENT (STUDY DURATION: 25 WK), Species: RAT, Strain/Sex: F344/MALE, Target Tissue: Type of Lesion: ESOPHAGUS: TUMOR, Dose [Carcinogen]: 0.5 MG/KG BW IN 20% DMSO 1/WK FOR 15 WK, Promoter: NONE USED","100%, 40%, 60%, p<0.05"
same,"tumour outcome (control, treated, inhibition, significance)","Carcinogen: N-NITROSOMETHYLBENZYLAMINE, 937-40-6, Dose [Inhibitor]: 0, 1.5 UMOL/G OF DIET FOR 25 WK BEGINNING 2 WK PRIOR TO CARCINOGEN TREATMENT (STUDY DURATION: 25 WK), Species: RAT, Strain/Sex: F344/MALE, Target Tissue: Type of Lesion: ESOPHAGUS: TUMORS, Dose [Carcinogen]: 0.5 MG/KG 1/WK FOR 15 WK, Promoter: NONE USED","100%, 60%, 40%, p<0.01"
same,"tumour outcome (control, treated, inhibition, significance)","Carcinogen: N-NITROSOMETHYLBENZYLAMINE, 937-40-6, Dose [Inhibitor]: 0, 2.5 UMOL/G IN DIET FOR 25 WK BEGINNING 2 WK PRIOR TO CARCINOGEN TREATMENT (STUDY DURATION: 25 WK), Species: RAT, Strain/Sex: F344/MALE, Target Tissue: Type of Lesion: ESOPHAGUS: TUMOR, Dose [Carcinogen]: 0.5 MG/KG BW IN 20% DMSO 1/WK FOR 15 WK, Promoter: NONE USED","100%, 7%, 93%, p<0.05"
same,"tumour outcome (control, treated, inhibition, significance)","Carcinogen: N-NITROSOMETHYLBENZYLAMINE, 937-40-6, Dose [Inhibitor]: 0, 3 UMOL/G OF DIET FOR 25 WK BEGINNING 2 WK PRIOR TO CARCINOGEN TREATMENT (STUDY DURATION: 25 WK), Species: RAT, Strain/Sex: F344/MALE, Target Tissue: Type of Lesion: ESOPHAGUS: TUMORS, Dose [Carcinogen]: 0.5 MG/KG 1/WK FOR 15 WK, Promoter: NONE USED","100%, 0%, 100%, p<0.01"
same,"tumour outcome (control, treated, inhibition, significance)","Carcinogen: N-NITROSOMETHYLBENZYLAMINE, 937-40-6, Dose [Inhibitor]: 0, 500 PPM IN DIET FOR DURATION OF STUDY BEGINNING 1 WK POST CARCINOGEN TREATMENT (STUDY DURATION: 25 WK), Species: RAT, Strain/Sex: F344/MALE, Target Tissue: Type of Lesion: ESOPHAGUS: TUMOR, Dose [Carcinogen]: 1 MG/KG 3/WK FOR 5 WK, Promoter: NONE USED","15/15 (100%), 14/15 (93%), 7%, not significant"
same,"tumour outcome (control, treated, inhibition, significance)","Carcinogen: N-NITROSOMETHYLBENZYLAMINE, 937-40-6, Dose [Inhibitor]: 0, 500 PPM IN DIET FOR DURATION OF STUDY BEGINNING 2 WK PRIOR TO CARCINOGEN TREATMENT (STUDY DURATION: 25 WK), Species: RAT, Strain/Sex: F344/MALE, Target Tissue: Type of Lesion: ESOPHAGUS: TUMOR, Dose [Carcinogen]: 1 MG/KG 3/WK FOR 5 WK, Promoter: NONE USED","15/15 (100%), 7/15 (47%), 53%, p<0.01"
